{"source": "patent US4243678A", "about": "“Acylhydrocarbylaminoalkanoic acids, compositions and uses” (Byk Gulden Lomberg Chemische Fabrik GmbH, priority 1977, dated 1981)", "key": {"liver damage by CCl4": {"test_system": "liver damage by CCl4", "assay": "Antihepatotoxic effect: duration of hexobarbital sleep of the rat after liver damage by CCl4", "conditions": "Rattus norvegicus, po", "method": "(§1) The compounds to be tested are administered 1 hour prior to the administration of CCl4 orally in a liquid volume of 10 ml/kg.\n(§2) The antihepatotoxic effect of the compounds to be tested (sodium salts in aqueous solution) is determined by the reduction of the prolongation of sleeping period caused by the CCl4 liver cell damage in the groups treated, as compared with the prolongation of the sleeping period of the CCl4 control group (=100%). […]"}, "[1]": {"assay": "Antihepatotoxic effect: duration of hexobarbital sleep of the rat after liver damage by CCl4", "conditions": "rat, in vivo", "method": "as §1, §2"}, "[2]": {"assay": "Determination of toxicity (lethal action on the mouse after intraperitoneal application)", "format": "in vivo", "conditions": "in vivo, ip", "method": "(§3) The toxicity investigations are carried out on female NMRI mice (body weight 22 to 26 g). The animals (5 animals per dose) are given food and water ad lib. Different doses of the substances are administered intraperitoneally. The duration of observation is 14 days. The LD50, i.e. the dose at which 50% of the animals die, is determined graphically from the dose/effect curve."}, "mouse": {"test_system": "mouse", "assay": "Determination of toxicity (lethal action on the mouse after intraperitoneal application)", "format": "in vivo", "conditions": "20160 min", "method": "as §3"}, "bile secretion": {"test_system": "bile secretion", "assay": "Influence on bile secretion (choleresis) of the narcotized rat", "format": "in vivo, rat (male Sprague-Dawley)", "conditions": "0.5 h; narcotized rat, i.d.; liquid volume, 30 min fraction; Table II; read-out: ED50 bile secretion (dose which brings about an increase in the bile secretion by a maximum of 50%)", "from_the_text": "(§4) Male Sprague-Dawley rats (body weight from 250 to 300 g) are narcotized with 1.2 g/kg urethane i.m. Then the abdominal cavity is opened medially, the bile duct is ligatured shortly above the place where it leads into the duodenum and also near to the hepatic duct, and both sections are catheterized towards the liver.\n(§5) As in the rat all the pancreatic ducts lead out into the central section of the bile duct; it is possible in this way to discharge the pancreatic secretion separately from the distal (ligatured) section and the bile separately from the proximal section of the bile duct.\n(§6) The quantities of pancreatic juice and bile juice obtained are measured at intervals of 30 minutes over a period from 2 hours before to 3 hours after the intraduodenal (V. jugularis externa) administration of the compounds to be tested (quantity of liquid administered 5 ml/kg).\n(§7) The body temperature of the animals is maintained at 36° to 38° C. by means of electric blankets and radiation; the temperature is monitored rectally.\n(§8) The liquid volumes of the 30-minute fractions after the administration of the substance are related in each case to the quantity of bile or pancreatic juice secreted prior to the application of the substance (=100%, mean of the last two measurements). The maximum percentage increase in the pancreatic or bile secretion is represented in dependence upon dose, and from this the ED50 is determined by interpolation."}, "[3]": {"assay": "Influence on bile secretion (choleresis) of the narcotized rat", "format": "in vivo, rat (male Sprague-Dawley)", "conditions": "in vivo; LD50 mouse i.p. / ED50 rat i.d.; Table II; read-out: TQ (LD50/ED50), bile secretion", "from_the_text": "as §4, §5, §6, §7, §8"}, "pancreatic secretion": {"test_system": "pancreatic secretion", "assay": "Influence on pancreatic secretion of the narcotized rat", "format": "in vivo, rat (male Sprague-Dawley)", "conditions": "0.5 h, narcotized rat, i.d., liquid volume"}, "[4]": {"assay": "Influence on pancreatic secretion of the narcotized rat", "format": "in vivo, rat (male Sprague-Dawley)", "conditions": "in vivo, LD50 mouse i.p. / ED50 rat i.d."}, "[5]": {"assay": "Antiulcerogenic (stomach-protective) action, pylorus ligature and acetylsalicylic acid", "format": "in vivo, rat (female)", "conditions": "in vivo; LD50 mouse i.p. / ED50 rat i.d.; Table IV; read-out: TQ (LD50/ED50), antiulcerogenic action", "method": "(§9) The ulcer provocation is carried out on rats which have been made to fast for 24 hours (female, 180 to 200 g) by ligature of the pylorus (under ether narcosis) and the oral application of 100 mg/10 ml/kg acetylsalicylic acid. The administration of the substances was carried out intraduodenally (2.5 ml/kg) immediately after the ligature of the pylorus. The closure of the wound was carried out by means of Michel clamps. 4 hours after this, the animals were autopsied (while inebriated with ether) by dislocation of the atlas, and the stomach was resected. The stomach, opened longitudinally, is fixed on a cork board and, using a stereomicroscope with an enlargement of 10×, the number and size (=diameter) of any ulcers present were determined. The product of the degree of severity (according to the following scale of points) and the number of ulcers was used as the individual ulcer index.\n(§10) As a measure of antiulcerogenic effect the reduction in the mean ulcer index of each treated group, as compared with that of the control group (=100%), was used."}, "stomach ulcer": {"test_system": "stomach ulcer", "assay": "Antiulcerogenic (stomach-protective) action, pylorus ligature and acetylsalicylic acid", "format": "in vivo, rat (female)", "conditions": "4 h; rat, intraduodenally; Table IV; read-out: ED50 antiulcerogenic action (dose which reduces the mean ulcer index by 50%)", "method": "as §9, §10"}, "[6]": {"test_system": "glucose formation from lactate and pyruvate in isolated perfused liver", "assay": "Inhibition of the formation of glucose from lactate and pyruvate in the isolated perfused rat liver", "design": "species or system rat (male Sprague-Dawley)", "conditions": "Table XIII", "method": "For this purpose young male Sprague-Dawley rats (160 to 200 g) are used. The rats are kept in cages of up to 5 animals in a temperature-controlled room (23° C.) with a fixed day/night rhythm (12/12 hours).\nFood is withheld from the animals for from 20 to 22 hours prior to the operation. They are allowed to take water ad lib. The operation and the perfusion of the liver are carried out using the technique of R. Scholz et al. [Eur. J. Biochem. 38 (1973) 64 to 72]. The perfusion liquid used is Krebs-Henseleit bicarbonate buffer (pH 7.4), which is saturated with an oxygen/carbon dioxide mixture (95/5) and contains 1.6 mmol/liter of L-lactate and 0.2 mmol/liter of pyruvate. The perfusion liquid is pumped into the liver via a cannula inserted into the portal vein. The effluent perfusion liquid is collected via a cannula inserted into the Vena cava. The liver is perfused for about 2 hours. The test compounds are infused for 16 minutes each from the 32nd to the […] after the perfusion in increasing concentrations (0.02 to 1.00 mmol/liter).\nSamples of the effluent perfusion liquid are collected at one-minute intervals and analyzed for glucose, lactate and pyruvate (using standard enzymatic methods). The percentages shown in Table VIII relate to the condition occurring before and after the administration of the compounds, the changes caused solely by lactate and pyruvate being set as being equal to 100%."}}, "note": "Like-named read-outs stand apart in the source and are kept apart here."}
{"compound": "C#CC(C)(C)N(CCCC(=O)O)C(=O)c1ccc(Cl)cc1", "note": "[Serial No. 3, N-(p-chloro)benzoyl-4-[(2-methyl-3-butyn-2-yl)amino]butyric acid]", "values": [{"measurement": "ED50", "setting": "liver damage by CCl4; read-out: ED50 antihepatotoxic effect (dose which shortens the hexobarbital narcosis by 50%)", "value": 100, "unit": "mg/kg"}, {"measurement": "selectivity ratio", "setting": "[1]; TQ (LD50/ED50), antihepatotoxic effect, LD50 mouse i.p. / ED50 rat p.o., Table III", "value": "> 10"}, {"measurement": "LD50 at 336 h", "setting": "[2]; mouse, Table II", "value": "> 1000", "unit": "mg/kg"}, {"measurement": "LD50", "setting": "mouse; mouse, i.p., Table III", "value": "> 1000", "unit": "mg/kg"}, {"measurement": "ED50", "setting": "bile secretion", "value": 25, "unit": "mg/kg"}, {"measurement": "selectivity ratio", "setting": "[3]", "value": "> 40"}]}
{"compound": "COc1ccc(Cl)cc1C(=O)N(CCCCCC(=O)O)c1ccccc1-c1ccccc1", "note": "[Serial No. 30, 6-[5-chloro-2-methoxy-N-(biphenyl-2-yl)benzamido]caproic acid]", "values": [{"measurement": "ED25", "setting": "liver damage by CCl4; read-out: ED25 antihepatotoxic effect (shortens hexobarbital narcosis by 25%)", "value": 10, "unit": "mg/kg"}, {"measurement": "selectivity ratio", "setting": "[1]; TQ LD50/ED25, antihepatotoxic effect, LD50 mouse i.p. / ED25 rat p.o., Table V", "value": "> 20"}, {"measurement": "ED50", "setting": "pancreatic secretion; 30 min fraction, Table VII, read-out: ED50 pancreatic secretion (dose which brings about an increase in pancreatic secretion of a maximum of 50%)", "value": "< 1", "unit": "mg/kg"}, {"measurement": "selectivity ratio", "setting": "[4]; Table VII, read-out: TQ [LD50/ED50], pancreatic secretion", "value": "> 200"}, {"measurement": "LD50 at 336 h", "setting": "[2]; mouse, Table IV", "value": "> 200", "unit": "mg/kg"}, {"measurement": "LD50", "setting": "mouse; mouse i.p., Table V", "value": "> 200", "unit": "mg/kg"}, {"measurement": "LD50", "setting": "mouse; mouse i.p., Table VII", "value": "> 200", "unit": "mg/kg"}, {"measurement": "selectivity ratio", "setting": "[5]", "value": "> 20"}, {"measurement": "ED50", "setting": "stomach ulcer", "value": 10, "unit": "mg/kg"}]}
{"compound": "CC(C)C(=O)N(CCCC(=O)O)C1CCCc2ccccc21", "note": "(stereo not drawn) [Serial No. 50, 4-[N-(1,2,3,4-tetrahydro-1-naphthyl)isobutyramido]butyric acid]", "values": [{"measurement": "ED50", "setting": "pancreatic secretion; 30 minute fraction, Table X, read-out: ED50 pancreatic secretion (dose which brings about an increase in pancreatic secretion by a maximum of 50%)", "value": "~3", "unit": "mg/kg"}, {"measurement": "selectivity ratio", "setting": "[4]; Table X, read-out: TQ LD50/ED50, pancreatic secretion", "value": "≥ 66.7"}, {"measurement": "Glucose formation, % change", "setting": "[6]; 0.2 mmol/liter in the perfusate, isolated perfused liver of fasting rats", "value": -33, "unit": "%"}, {"measurement": "ED50 inhibition of formation of glucose from lactate and pyruvate", "setting": "[6]; from 4 concentrations, 0.02 to 1.00 mmol/liter", "value": 97, "unit": "mg/L"}, {"measurement": "LD50 at 336 h", "setting": "[2]; mouse i.p., Table X", "value": "> 200", "unit": "mg/kg"}, {"measurement": "LD50 (i.p.)", "setting": "mouse; mouse, i.p., Table XIII", "value": "> 200", "unit": "mg/kg"}]}
